Tests used:
[1] = molecular target: Serine/threonine-protein kinase BRSK1 (Homo sapiens) (UniProt Q8TDC3); details: Compound concentration 1000.0 nM
[2] = molecular target: Calcium/calmodulin-dependent protein kinase type 1B (Homo sapiens) (UniProt Q6P2M8); details: Compound concentration 1000.0 nM
[3] = molecular target: Calcium/calmodulin-dependent protein kinase type II subunit gamma (Homo sapiens) (UniProt Q13555); details: Compound concentration 1000.0 nM
[4] = molecular target: Cyclin-dependent kinase 11B (Homo sapiens) (UniProt P21127); details: Compound concentration 1000.0 nM
[5] = molecular target: Cyclin-dependent kinase 11A (Homo sapiens) (UniProt Q9UQ88); details: Compound concentration 1000.0 nM
[6] = system: Epidermal growth factor receptor (Homo sapiens), P00533 [L861Q]; details: Compound concentration 1000.0 nM
[7] = molecular target: Tyrosine-protein kinase Fes/Fps (Homo sapiens) (UniProt P07332); details: Compound concentration 1000.0 nM
[8] = system: Receptor-type tyrosine-protein kinase FLT3 (Homo sapiens), P36888 [UNDEFINED MUTATION]; details: Compound concentration 1000.0 nM
[9] = molecular target: Glycogen synthase kinase-3 beta (Homo sapiens) (UniProt P49841); details: Compound concentration 1000.0 nM
[10] = molecular target: Tyrosine-protein kinase HCK (Homo sapiens) (UniProt P08631); details: Compound concentration 1000.0 nM
[11] = molecular target: Tyrosine-protein kinase JAK1 (Homo sapiens) (UniProt P23458); details: Compound concentration 1000.0 nM
[12] = molecular target: Serine/threonine-protein kinase LATS1 (Homo sapiens) (UniProt O95835); details: Compound concentration 1000.0 nM
[13] = molecular target: Mitogen-activated protein kinase kinase kinase kinase 2 (Homo sapiens) (UniProt Q12851); details: Compound concentration 1000.0 nM
[14] = molecular target: Dual specificity mitogen-activated protein kinase kinase 2 (Homo sapiens) (UniProt P36507); details: Compound concentration 1000.0 nM
[15] = molecular target: Serine/threonine-protein kinase 38-like (Homo sapiens) (UniProt Q9Y2H1); details: Compound concentration 1000.0 nM
[16] = molecular target: Serine/threonine-protein kinase Nek1 (Homo sapiens) (UniProt Q96PY6); details: Compound concentration 1000.0 nM
[17] = molecular target: Serine/threonine-protein kinase Nek11 (Homo sapiens) (UniProt Q8NG66); details: Compound concentration 1000.0 nM
[18] = system: Phosphatidylinositol 4,5-bisphosphate 3-kinase catalytic subunit alpha isoform (Homo sapiens), P42336 [E545A]; details: Compound concentration 1000.0 nM
[19] = molecular target: Phosphatidylinositol 4,5-bisphosphate 3-kinase catalytic subunit beta isoform (Homo sapiens) (UniProt P42338); details: Compound concentration 1000.0 nM
[20] = molecular target: Protein kinase C epsilon type (Homo sapiens) (UniProt Q02156); details: Compound concentration 1000.0 nM
[21] = molecular target: Rho-associated protein kinase 1 (Homo sapiens) (UniProt Q13464); details: Compound concentration 1000.0 nM
[22] = molecular target: Ribosomal protein S6 kinase alpha-5 (Homo sapiens) (UniProt O75582); details: Compound concentration 1000.0 nM
[23] = molecular target: Serine/threonine-protein kinase Sgk1 (Homo sapiens) (UniProt O00141); details: Compound concentration 1000.0 nM
[24] = molecular target: Non-receptor tyrosine-protein kinase TNK1 (Homo sapiens) (UniProt Q13470); details: Compound concentration 1000.0 nM
[25] = molecular target: Serine/threonine-protein kinase ULK2 (Homo sapiens) (UniProt Q8IYT8); details: Compound concentration 1000.0 nM
[26] = molecular target: T1, 5-hydroxytryptamine receptor 2C (Homo sapiens) (UniProt P28335); details: Compound concentration 10.0 uM
T1 sequence (whole entry): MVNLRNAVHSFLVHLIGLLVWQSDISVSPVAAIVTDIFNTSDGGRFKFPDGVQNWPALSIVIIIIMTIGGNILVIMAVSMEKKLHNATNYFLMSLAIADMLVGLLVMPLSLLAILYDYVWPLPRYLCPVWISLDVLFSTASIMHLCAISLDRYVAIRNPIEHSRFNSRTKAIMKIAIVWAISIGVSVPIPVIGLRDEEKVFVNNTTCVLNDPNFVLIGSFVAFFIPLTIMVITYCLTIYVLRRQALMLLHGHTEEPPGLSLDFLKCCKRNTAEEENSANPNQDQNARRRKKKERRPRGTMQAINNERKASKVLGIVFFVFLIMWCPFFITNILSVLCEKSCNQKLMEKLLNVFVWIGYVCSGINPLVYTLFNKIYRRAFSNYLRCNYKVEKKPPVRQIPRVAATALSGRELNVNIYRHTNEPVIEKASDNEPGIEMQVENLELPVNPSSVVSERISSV

[27] = molecular target: 5-hydroxytryptamine receptor 6 (Homo sapiens) (UniProt P50406); details: Compound concentration 10.0 uM
[28] = molecular target: Mu-type opioid receptor (Homo sapiens) (UniProt P35372); details: Compound concentration 10.0 uM
[29] = molecular target: Histamine H3 receptor (Homo sapiens) (UniProt Q9Y5N1); details: Compound concentration 10.0 uM
[30] = molecular target: Muscarinic acetylcholine receptor M4 (Homo sapiens) (UniProt P08173); details: Compound concentration 10.0 uM
[31] = molecular target: T2, Alpha-1D adrenergic receptor (Homo sapiens) (UniProt P25100); details: Compound concentration 10.0 uM
T2 sequence (whole entry): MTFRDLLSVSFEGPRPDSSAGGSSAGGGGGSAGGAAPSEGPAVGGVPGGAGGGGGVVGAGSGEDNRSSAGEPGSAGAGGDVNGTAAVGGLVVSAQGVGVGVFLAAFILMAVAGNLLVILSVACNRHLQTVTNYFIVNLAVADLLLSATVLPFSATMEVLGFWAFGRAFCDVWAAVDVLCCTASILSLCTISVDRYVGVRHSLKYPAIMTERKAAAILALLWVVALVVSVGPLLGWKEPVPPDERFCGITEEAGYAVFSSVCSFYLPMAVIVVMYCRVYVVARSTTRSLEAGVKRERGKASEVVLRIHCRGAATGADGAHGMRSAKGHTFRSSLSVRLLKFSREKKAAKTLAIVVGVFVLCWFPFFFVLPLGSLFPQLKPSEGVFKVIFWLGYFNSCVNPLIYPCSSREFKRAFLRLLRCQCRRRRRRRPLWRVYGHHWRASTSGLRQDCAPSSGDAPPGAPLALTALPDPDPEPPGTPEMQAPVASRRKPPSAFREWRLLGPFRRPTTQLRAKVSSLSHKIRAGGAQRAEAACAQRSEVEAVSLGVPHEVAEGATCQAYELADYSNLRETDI

Calcium/calmodulin-dependent protein kinase type 1B (Homo sapiens), sequence (Q6P2M8 whole entry): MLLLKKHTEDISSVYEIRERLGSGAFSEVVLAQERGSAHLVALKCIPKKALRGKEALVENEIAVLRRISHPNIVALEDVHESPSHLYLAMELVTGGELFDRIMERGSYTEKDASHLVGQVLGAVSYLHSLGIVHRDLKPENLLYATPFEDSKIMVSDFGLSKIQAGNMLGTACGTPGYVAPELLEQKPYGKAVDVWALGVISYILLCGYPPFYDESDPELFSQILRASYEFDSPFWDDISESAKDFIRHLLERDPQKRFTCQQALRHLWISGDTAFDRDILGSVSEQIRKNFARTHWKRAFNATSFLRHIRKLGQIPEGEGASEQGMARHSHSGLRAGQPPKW
Serine/threonine-protein kinase Nek1 (Homo sapiens), sequence (Q96PY6 whole entry): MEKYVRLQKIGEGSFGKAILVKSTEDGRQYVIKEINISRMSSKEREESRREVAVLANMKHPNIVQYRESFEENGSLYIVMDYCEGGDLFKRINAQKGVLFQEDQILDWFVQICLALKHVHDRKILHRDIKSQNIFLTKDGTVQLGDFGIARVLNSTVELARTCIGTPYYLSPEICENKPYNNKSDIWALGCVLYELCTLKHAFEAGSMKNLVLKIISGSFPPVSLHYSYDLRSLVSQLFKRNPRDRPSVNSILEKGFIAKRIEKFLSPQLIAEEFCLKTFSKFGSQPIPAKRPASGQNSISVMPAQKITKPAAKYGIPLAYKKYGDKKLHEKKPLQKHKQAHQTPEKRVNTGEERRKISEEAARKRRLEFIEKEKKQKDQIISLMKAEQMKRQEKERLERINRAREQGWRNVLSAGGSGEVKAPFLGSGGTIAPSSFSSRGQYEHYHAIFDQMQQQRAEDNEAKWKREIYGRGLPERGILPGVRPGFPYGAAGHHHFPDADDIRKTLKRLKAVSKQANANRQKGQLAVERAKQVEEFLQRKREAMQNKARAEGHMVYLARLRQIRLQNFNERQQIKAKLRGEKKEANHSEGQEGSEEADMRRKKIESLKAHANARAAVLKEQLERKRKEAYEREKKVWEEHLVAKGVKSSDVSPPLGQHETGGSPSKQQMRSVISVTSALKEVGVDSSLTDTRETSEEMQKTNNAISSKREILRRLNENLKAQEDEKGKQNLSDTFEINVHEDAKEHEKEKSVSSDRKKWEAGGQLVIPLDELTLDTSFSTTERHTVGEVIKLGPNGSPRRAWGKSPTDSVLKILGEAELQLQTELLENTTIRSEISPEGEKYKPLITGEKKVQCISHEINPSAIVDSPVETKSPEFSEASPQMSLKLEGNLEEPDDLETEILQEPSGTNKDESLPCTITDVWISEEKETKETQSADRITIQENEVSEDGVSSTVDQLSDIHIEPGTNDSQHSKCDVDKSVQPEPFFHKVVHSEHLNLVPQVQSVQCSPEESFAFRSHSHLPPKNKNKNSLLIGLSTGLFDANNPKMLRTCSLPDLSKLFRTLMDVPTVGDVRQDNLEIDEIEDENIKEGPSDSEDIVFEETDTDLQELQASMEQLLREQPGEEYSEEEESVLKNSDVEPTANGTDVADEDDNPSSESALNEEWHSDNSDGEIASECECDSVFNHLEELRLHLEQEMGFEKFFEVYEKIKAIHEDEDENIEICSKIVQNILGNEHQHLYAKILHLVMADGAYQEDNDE
Tyrosine-protein kinase HCK (Homo sapiens), sequence (P08631 2-526 limits assumed): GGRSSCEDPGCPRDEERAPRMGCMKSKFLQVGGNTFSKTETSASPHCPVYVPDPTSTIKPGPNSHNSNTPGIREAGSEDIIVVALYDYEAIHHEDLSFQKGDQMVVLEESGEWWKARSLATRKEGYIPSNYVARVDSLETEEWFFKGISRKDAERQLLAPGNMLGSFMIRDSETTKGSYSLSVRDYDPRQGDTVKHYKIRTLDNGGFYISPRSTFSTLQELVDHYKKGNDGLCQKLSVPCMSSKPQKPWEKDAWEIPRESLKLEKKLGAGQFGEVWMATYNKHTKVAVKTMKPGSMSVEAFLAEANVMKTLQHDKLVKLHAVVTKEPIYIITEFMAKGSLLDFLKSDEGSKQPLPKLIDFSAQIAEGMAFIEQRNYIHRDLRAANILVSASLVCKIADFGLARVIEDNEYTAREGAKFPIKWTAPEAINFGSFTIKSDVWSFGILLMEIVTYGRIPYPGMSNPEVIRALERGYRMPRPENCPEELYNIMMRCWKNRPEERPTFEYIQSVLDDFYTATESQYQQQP
Phosphatidylinositol 4,5-bisphosphate 3-kinase catalytic subunit alpha isoform (Homo sapiens), P42336 [E545A], sequence (P42336 whole entry E545A, canonical isoform): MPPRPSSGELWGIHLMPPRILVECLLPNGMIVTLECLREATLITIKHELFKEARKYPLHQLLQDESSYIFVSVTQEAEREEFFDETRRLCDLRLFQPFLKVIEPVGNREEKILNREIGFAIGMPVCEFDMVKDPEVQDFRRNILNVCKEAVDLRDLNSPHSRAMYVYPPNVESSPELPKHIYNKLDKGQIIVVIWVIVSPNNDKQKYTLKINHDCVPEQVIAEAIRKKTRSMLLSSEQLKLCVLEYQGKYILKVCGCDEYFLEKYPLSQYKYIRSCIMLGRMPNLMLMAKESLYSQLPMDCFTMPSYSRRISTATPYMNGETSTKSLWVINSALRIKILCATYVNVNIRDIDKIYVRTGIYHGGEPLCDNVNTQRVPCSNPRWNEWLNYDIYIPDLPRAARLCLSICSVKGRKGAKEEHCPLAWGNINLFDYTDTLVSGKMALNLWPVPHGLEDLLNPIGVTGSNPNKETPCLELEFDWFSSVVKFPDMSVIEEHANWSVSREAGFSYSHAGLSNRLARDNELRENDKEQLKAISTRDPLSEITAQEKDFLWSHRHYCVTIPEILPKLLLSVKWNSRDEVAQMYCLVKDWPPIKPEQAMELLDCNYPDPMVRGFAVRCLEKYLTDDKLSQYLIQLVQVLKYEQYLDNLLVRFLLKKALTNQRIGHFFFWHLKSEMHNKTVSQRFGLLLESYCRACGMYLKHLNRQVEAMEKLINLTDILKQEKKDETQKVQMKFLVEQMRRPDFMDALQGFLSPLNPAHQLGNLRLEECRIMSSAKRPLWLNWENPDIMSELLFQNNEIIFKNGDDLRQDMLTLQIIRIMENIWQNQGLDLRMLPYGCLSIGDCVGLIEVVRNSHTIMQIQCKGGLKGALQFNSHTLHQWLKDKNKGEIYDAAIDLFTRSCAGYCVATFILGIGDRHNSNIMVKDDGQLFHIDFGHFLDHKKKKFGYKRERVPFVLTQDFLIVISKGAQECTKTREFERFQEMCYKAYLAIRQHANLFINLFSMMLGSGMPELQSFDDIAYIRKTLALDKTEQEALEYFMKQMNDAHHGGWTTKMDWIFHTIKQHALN
Serine/threonine-protein kinase BRSK1 (Homo sapiens), sequence (Q8TDC3 whole entry): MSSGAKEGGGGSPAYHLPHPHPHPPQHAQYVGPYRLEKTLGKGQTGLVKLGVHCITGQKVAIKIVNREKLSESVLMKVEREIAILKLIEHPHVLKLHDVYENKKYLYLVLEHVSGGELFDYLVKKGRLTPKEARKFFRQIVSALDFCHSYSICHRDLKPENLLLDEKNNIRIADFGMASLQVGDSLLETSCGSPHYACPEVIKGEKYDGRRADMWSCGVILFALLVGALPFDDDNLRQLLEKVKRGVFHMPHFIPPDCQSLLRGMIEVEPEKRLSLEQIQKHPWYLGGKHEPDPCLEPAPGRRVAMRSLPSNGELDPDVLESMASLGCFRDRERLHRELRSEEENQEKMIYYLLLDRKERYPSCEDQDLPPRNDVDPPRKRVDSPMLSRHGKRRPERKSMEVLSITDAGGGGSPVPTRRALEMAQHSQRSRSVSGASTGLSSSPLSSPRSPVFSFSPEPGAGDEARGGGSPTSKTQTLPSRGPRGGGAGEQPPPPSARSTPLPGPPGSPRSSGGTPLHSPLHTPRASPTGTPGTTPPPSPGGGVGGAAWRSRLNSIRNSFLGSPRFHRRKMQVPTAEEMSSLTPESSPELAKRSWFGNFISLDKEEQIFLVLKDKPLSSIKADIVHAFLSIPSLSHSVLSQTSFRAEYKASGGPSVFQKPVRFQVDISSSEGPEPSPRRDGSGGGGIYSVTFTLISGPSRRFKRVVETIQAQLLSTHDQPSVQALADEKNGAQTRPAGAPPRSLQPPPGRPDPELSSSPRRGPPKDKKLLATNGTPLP
Mu-type opioid receptor (Homo sapiens), sequence (P35372 whole entry): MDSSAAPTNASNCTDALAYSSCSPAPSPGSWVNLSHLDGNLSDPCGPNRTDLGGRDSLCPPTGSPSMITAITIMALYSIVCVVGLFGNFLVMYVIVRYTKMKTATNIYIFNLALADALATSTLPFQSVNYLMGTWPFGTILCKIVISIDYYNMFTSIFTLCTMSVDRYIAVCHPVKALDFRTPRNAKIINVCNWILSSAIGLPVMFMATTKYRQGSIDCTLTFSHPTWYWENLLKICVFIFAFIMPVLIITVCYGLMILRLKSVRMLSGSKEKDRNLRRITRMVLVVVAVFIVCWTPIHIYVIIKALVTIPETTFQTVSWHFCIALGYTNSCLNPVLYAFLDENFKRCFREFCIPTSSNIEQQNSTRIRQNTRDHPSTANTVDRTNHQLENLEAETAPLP
Serine/threonine-protein kinase Sgk1 (Homo sapiens), sequence (O00141 whole entry): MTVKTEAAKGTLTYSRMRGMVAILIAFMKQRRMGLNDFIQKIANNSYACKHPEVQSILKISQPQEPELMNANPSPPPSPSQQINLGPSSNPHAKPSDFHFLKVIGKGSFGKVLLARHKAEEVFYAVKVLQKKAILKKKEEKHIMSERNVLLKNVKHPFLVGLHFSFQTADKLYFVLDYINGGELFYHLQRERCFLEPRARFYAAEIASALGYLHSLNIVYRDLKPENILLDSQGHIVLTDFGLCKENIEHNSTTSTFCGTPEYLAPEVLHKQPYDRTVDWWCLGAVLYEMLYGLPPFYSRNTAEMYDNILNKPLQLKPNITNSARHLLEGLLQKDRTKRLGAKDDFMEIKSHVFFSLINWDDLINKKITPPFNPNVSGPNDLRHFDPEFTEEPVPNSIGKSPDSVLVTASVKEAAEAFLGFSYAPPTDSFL

Cc1c(C(=O)O)cc(-c2ccc(C3CCNCC3)cc2)c2ccc(-c3ccc(C(F)(F)F)cc3)cc12 [PPTN-NC]
inactive: residual activity [1] 100% | residual activity [2] 100% | residual activity [3] 100% | residual activity [4] 100% | residual activity [5] 100% | residual activity [6] 100% | residual activity [7] 100% | residual activity [8] 95% | residual activity [9] 100% | residual activity [10] 100% | residual activity [11] 100% | residual activity [12] 86% | residual activity [13] 100% | residual activity [14] 100% | residual activity [15] 100% | residual activity [16] 100% | residual activity [17] 100% | residual activity [18] 100% | residual activity [19] 100% | residual activity [20] 100% | residual activity [21] 100% | residual activity [22] 100% | residual activity [23] 100% | residual activity [24] 100% | residual activity [25] 100% | inhibition [26] -4.53% | inhibition [27] 13.5% | inhibition [28] 12.6% | inhibition [29] 7.04% | inhibition [30] -5.54% | inhibition [31] 13.3%

O=C(O)c1cc(-c2ccc(C3CCNCC3)cc2)c2ccc(-c3ccc(C(F)(F)F)cc3)cc2c1 [PPTN]
inactive: residual activity [1] 100% | residual activity [2] 100% | residual activity [3] 100% | residual activity [4] 100% | residual activity [5] 100% | residual activity [6] 100% | residual activity [7] 100% | residual activity [8] 100% | residual activity [9] 100% | residual activity [10] 100% | residual activity [11] 100% | residual activity [12] 88% | residual activity [13] 100% | residual activity [14] 90% | residual activity [15] 100% | residual activity [16] 100% | residual activity [17] 100% | residual activity [18] 87% | residual activity [19] 100% | residual activity [20] 100% | residual activity [21] 100% | residual activity [22] 100% | residual activity [23] 100% | residual activity [24] 100% | residual activity [25] 100% | inhibition [26] 11.2% | inhibition [27] 5.62% | inhibition [28] 19.3% | inhibition [29] 0.03% | inhibition [30] -4.96% | inhibition [31] 33.5%
